From patent US20200368322A1, “METHODS OF IDENTIFYING AND USING AGENTS FOR TREATING DISEASES ASSOCIATED WITH INTESTINAL BARRIER DYSFUNCTION” (Yeda Research and Development Co. Ltd., priority 2018, published 2020)

Legend:
Caco-2 cells = assay: In vitro barrier assessment: ZO-1 staining and junction tortuosity of Caco-2 cells treated with glucose; type: cell-based; conditions: glucose plus 2-DG
Method: Caco-2 cells were purchased from ATCC. Cells were routinely grown in regular tissue culture medium (DMEM, 10% FCS, penicillin/streptomycin, GlutaMAX, 1 g/l glucose). For experiments, cells were seeded onto 96-well glass-bottom plates coated with fibronectin 25 μg/ml 70 000 cells/well and allowed to grow for 48 hours to form confluent monolayer before treatment with indicated concentration of glucose for indicated time period. […] Tight junctions labeling was performed with primary anti-ZO-1 mouse monoclonal antibodies (BD Transduction Laboratories) 1.25 μg/ml and secondary Alexa Fluor 488 goat anti-mouse antibodies (Invitrogen) 10 μg/ml. […] Cell images were segmented using Morphological Segmentation ImageJ plug-in and junction tortuosity was calculated as a ratio between junction length and Euclidian distance between its ends.
Hyperglycemia Reprograms Intestinal Epithelial Cells To determine whether glucose acted directly on intestinal epithelial cells to affect barrier function, an in vitro system of cultured intestinal epithelial (Caco-2) cells was used. […] Tight junction integrity was analyzed through automated high-throughput analysis of ZO-1 staining patterns. […] Global reprogramming of the epithelial transcriptome was detected in hyperglycemic mice (FIG. 41), in which more than 1,000 genes were differentially expressed compared to vehicle-treated controls (FIG. 4J). […]

Citrobacter rodentium = Citrobacter rodentium infection (bioluminescence, tissue CFU), Example 1; type: in vivo, mouse; conditions: for enhanced C. rodentium growth and pathogenic translocation / host defense against C. rodentium: STZ-treated mice given the agent (insulin 0.25 U per day; 2-DG i.p. twice daily 5 mg)
Method: (§1) To induce hyperglycemia, streptozotocin (STZ, Sigma-Aldrich) was diluted freshly in PBS and injected i.p. at 100 mg/kg at two consecutive days. Control mice were injected with PBS. Serum glucose measurements were performed using glucose strips (Perrigo). Hyperglycemic mice were used for further experimentation 2-3 weeks after STZ injection). For continuous insulin administration, ALZET osmotic pumps were used. Pumps were implanted subcutaneously in the back of the mice for 4 weeks. Insulin was delivered at 0.25 U/day. 2-deoxyglucose (2-DG) was injected i.p. twice daily at 5 mg per injection as previously described (47). Injections were performed for 10 consecutive days. Leptin antagonist was administered daily by intraperitoneal injection of 25 mg/kg as previously described (18).
Mice were infected by oral gavage with 200 μl of an overnight culture of LB containing approximately 1×10^9 colony-forming units (CFU) of a kanamycin-resistant, luciferase-expressing derivative of C. rodentium DBS100 (ICC180) as previously described (16). For in vivo bioluminescent imaging, mice were anesthetized with Ketamine/Xylazine. Bioluminescence was quantified using an IVIS2000 instrument and Living Image software (Perkin Elmer). For ex vivo luminescence analysis, colons were resected, extensively washed from all fecal matter and immediately imaged. For CFU counts, tissues were collected, weighed and homogenized in 1 ml of sterile PBS. Tissue homogenates were serially diluted in PBS and plated on to LB kanamycin plates, incubated overnight at 37° C., and bacterial colonies were enumerated the following day, normalizing them to the tissue weight.

[1] = tested on: intestinal epithelial cells; assay: RNA-sequencing of purified intestinal epithelial cells; type: in vivo, mouse; conditions: STZ-treated mice, 2-DG administration
Method: Intestinal tissue was excised from mice, thoroughly rinsed with ice-cold PBS to clean the tissue from fecal matter, and opened longitudinally. The tissue was then cut into pieces of 1 cm length and incubated in HBSS containing 2 mM EDTA and 1 mM DTT at 37° C. for 30 mins while shaking at 130 rpm. Epithelial cells were collected, filtered, centrifuged, and subsequently stained with anti-EpCAM and anti-CD45 antibodies (Biolegend) for 30 mins on ice. Cells were then washed, resuspended and sorted into lysis/binding buffer (Life Technologies) using a FACS-FUSION cell sorter (BD).
10^4 cells from each population were sorted into 80 μl of lysis/binding buffer (Life Technologies). mRNA was captured with 12 μl of Dynabeads oligo(dT) (Life Technologies), washed, and eluted at 70° C. with 10 μl of 10 mM Tris-Cl (pH 7.5). A derivation of MARS-seq was used as described (51). An average of 1 million reads was sequenced per library (Illumina NextSeq). The reads were aligned to the mouse reference genome (NCBI 37, mm9) using TopHat v2.0.10 (52) with default parameters. Expression levels were calculated and normalized using ESAT software (garberlabdotumassmeddotedu/software/esat). Duplicate reads were filtered if they aligned to the same base and had identical UMIs. […]

[2] = tested on: microbial pattern recognition receptor (PRR) ligands; assay: Quantification of microbial products at systemic sites (PRR reporter cell lines); type: in vivo, mouse; conditions: STZ-treated mice given the agent (insulin 0.25 U per day; 2-DG i.p. twice daily 5 mg)
Method: as §1, with “(18). The following PRR reporter cell lines were obtained from Invivogen (HEK-Blue TLR and NLR reporter cell lines): TLR2, TLR3, TLR4, TLR5, TLR7, TLR9, NOD1, NOD2. Extracts from spleen, liver, and serum were homogenized and added to reporter cell lines incubated with HEK-Blue detection medium (Invivogen) according to the manufacturer's instructions.” for “(18).”

[3] = tested on: colonic epithelial barrier; assay: Trans-epithelial flux (Ussing chamber, FITC-dextran); type: in vivo, mouse; conditions: STZ-treated mice, steady-state conditions
Method: On the day of the assay, 4 kDa fluorescein isothiocyanate (FITC)-dextran was dissolved in phosphate buffered saline (PBS) to a concentration of 80 mg/ml. Mice were fasted for 4 hours prior to gavage with 150 μl dextran. Mice were anesthetized 3 hours following gavage and blood was collected, centrifuged at 1,000×g for 12 min at 4° C. Serum was collected and fluorescence was quantified at an excitation wavelength of 485 nm and emission wavelength of 535 nm.
Epithelial resistance was measured using an Ussing chamber system (Warner Instruments P2300) according to the manufacturer's instructions. In brief, EasyMount chambers were calibrated, colonic tissue was excised from mice and immediately mounted, and voltage clamp recordings were performed. Tissues were maintained at 37° C. in physiological salt solution throughout the duration of the recording.

[4] = tested on: intestinal epithelial cells; assay: Epithelial turnover (Ki67 staining, cell viability by flow cytometry); type: in vivo, mouse; conditions: STZ-treated mice vs controls
Method: (§2) Colon samples were extensively washed and fixed and 4% paraformaldehyde. Samples were washed, paraffin-embedded and sectioned. Paraffin sections were de-paraffinized and antigen-retrieved in 10 mM sodium citrate, pH 6. Samples were incubated in PBS containing 20% (v/v) normal horse serum and 0.2% (v/v) Triton X-100 for 1 h; and then incubated over-night with rabbit anti-ZO-1 (Invitrogen 40-2200) primary antibody or rabbit anti E-cadherin (Cell Signaling 24E10). Sections were washed and incubated for 1 hour with alexa 488-conjugated donkey anti Rabbit antibody. Alternatively, sections were stained with Ki67 to indicate proliferating cells.
For viability measurements, isolated intestinal epithelial cells were stained with EpCAM, CD45 and propidium iodide. Cells were analyzed on a BD-LSRFortessa cytometer. All antibodies were obtained from Biolegend.

[5] = Serum glucose measurement; type: in vivo, mouse
Method: as §1

Salmonella Typhimurium = Salmonella Typhimurium infection; type: in vivo, mouse; conditions: STZ-treated mice, oral infection
Method: For oral infections, mice were pretreated with 50 mg/ml streptomycin one day prior to oral gavage of 10^8 CFU of SPI-II-deficient Salmonella Typhimurium (49). For systemic infections, mice were injected 10^4 CFU of Salmonella Typhimurium by intraperitoneal injection as previously described (50). One week after infection, colonization was assessed by bacterial plating on LB streptomycin plates, incubated overnight at 37° C., and bacterial colonies were enumerated the following day, normalizing them to the tissue weight.

[6] = tested on: intestinal epithelial adherence junctions; assay: Immunofluorescence staining of colon junctions (E-cadherin, ZO-1); type: in vivo, mouse
Method: as §2

[7] = Intestinal inflammatory state (H&E staining, colonic cytokine gene expression); type: in vivo, mouse; conditions: STZ-treated mice vs controls
intestinal microbiota = assay: Taxonomic microbiota analysis (16S rDNA sequencing); type: in vivo, mouse; conditions: hyperglycemic (STZ-treated) mice, insulin treatment
Method: Frozen fecal samples were processed for DNA isolation using the MoBio PowerSoil kit according to the manufacturer's instructions. For the 16S rRNA gene PCR amplification, 1 ng of the purified fecal DNA was used for PCR amplification. Amplicons spanning the variable region V3/4 of the 16S rRNA gene were generated by using primers: Fwd 5′-[…]-3′ (SEQ ID NO: 1), Rev 5′-[…]-3′ (SEQ ID NO: 2). The reactions were subsequently pooled and cleaned (PCR clean kit, Promega), and the PCR products were then sequenced on an Illumina MiSeq with 500 bp paired-end reads. The reads were then processed using the QIIME analysis pipeline as described (55, 56). In brief, fasta quality files and a mapping file indicating the barcode sequence corresponding to each sample were used as inputs, reads were split by samples according to the barcode, taxonomical classification was performed using the RDP-classifier, and an OTU table was created. Closed-reference OTU mapping was employed using the Greengenes database. Rarefaction was used to exclude samples with insufficient count of reads per sample. Sequences sharing 97% nucleotide sequence identity in the 16S region were binned into operational taxonomic units (97% ID OTUs). For beta-diversity, unweighted UniFrac measurements were plotted according to the two principal coordinates based on 10,000 reads per sample. […]

[8] = mice treated with the agent alone

| Compound | glucose-induced barrier aberrations in vitro (Caco-2 cells) | detectable pathogen load in the mesenteric lymph nodes, spleens and livers (Citrobacter rodentium; C. rodentium-infected db/db mice, 2-DG treatment) | bacterial growth in the intestinal lumen (Citrobacter rodentium; STZ-treated C. rodentium-infected mice, 2-DG treatment) | enhanced C. rodentium growth and pathogenic translocation / host defense against C. rodentium (Citrobacter rodentium) | transcriptional reprogramming of the epithelium [1] | systemic dissemination of microbial products [2] | trans-epithelial flux [3] | epithelial proliferation or cell death [4] | C. rodentium infection and systemic spread (Citrobacter rodentium; [8]) | blood glucose levels [5, 8] | intestinal luminal growth of Salmonella (Salmonella Typhimurium) | systemic colonization by Salmonella (Salmonella Typhimurium) | intestinal epithelial adherence junctions ([6]; STZ-treated mice, steady-state conditions) | inflammatory state in the intestine [7] | taxonomic change in the configuration of the intestinal microbiota (intestinal microbiota) | serum glucose levels ([5]; STZ-treated mice, 0.25 U per day insulin via pumps for 4 weeks) | loss of adherence junction integrity ([6]; STZ-treated mice given the agent) |
| --- | --- | --- | --- | --- | --- | --- | --- | --- | --- | --- | --- | --- | --- | --- | --- | --- | --- |
| O=CC[C@@H](O)[C@H](O)[C@H](O)CO [2-DG, 2-deoxyglucose] | rescued glucose-induced barrier aberrations in vitro in a dose-dependent manner | strongly reduced | unaffected | restored host defense against C. rodentium | blocked transcriptional reprogramming in STZ-treated mice | prevented the systemic dissemination of microbial products |  |  |  |  |  |  |  |  |  |  |  |
| CN(N=O)C(=O)N[C@H]1C(O)O[C@H](CO)[C@@H](O)[C@@H]1O (mixture of isomers) [STZ, streptozotocin] |  |  |  |  |  |  | enhanced trans-epithelial flux | not affected | severe C. rodentium infection and systemic translocation | hyperglycemia was induced | comparable to vehicle-treated controls | enhanced systemic colonization | dysfunction of intestinal epithelial adherence junctions | did not provoke an overt inflammatory state |  |  |  |
| insulin |  |  |  | prevented |  | prevented |  |  |  |  |  |  |  |  | corrected | restored normoglycemic levels | prevented |
